Where a chain is given by its changes, count along the chain named.
What was measured:
rP2X4R N287A mutant = biological target: T1, rP2X4R N287A mutant (Rattus norvegicus, UniProt P51577, N287A); experiment: whole-cell patch clamp, HEK293T cells expressing mutant; format: cell-based
T1 construct: expressed in transfected cells; host or cells: HEK293T
T1 sequence (P51577 1-388 N287A): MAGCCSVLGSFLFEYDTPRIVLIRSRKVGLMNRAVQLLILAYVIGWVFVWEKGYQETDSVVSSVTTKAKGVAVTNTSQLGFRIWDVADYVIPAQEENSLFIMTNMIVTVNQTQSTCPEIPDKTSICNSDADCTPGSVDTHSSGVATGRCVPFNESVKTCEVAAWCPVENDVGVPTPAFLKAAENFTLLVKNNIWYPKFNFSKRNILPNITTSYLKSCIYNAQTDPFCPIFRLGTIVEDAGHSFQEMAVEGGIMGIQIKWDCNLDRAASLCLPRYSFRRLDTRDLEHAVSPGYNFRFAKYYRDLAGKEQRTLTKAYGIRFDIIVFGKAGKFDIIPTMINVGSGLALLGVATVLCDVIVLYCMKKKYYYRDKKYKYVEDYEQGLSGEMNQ

rP2X4R V288A mutant = biological target: T2, rP2X4R V288A mutant (Rattus norvegicus, UniProt P51577, V288A); experiment: as above; format: cell-based
T2 construct: expressed in transfected cells; host or cells: HEK293T
T2 sequence (P51577 1-388 V288A): T1 sequence (P51577 1-388 N287A) with A287N, V288A

[1] = 100 µM ATP 60 s, biexponential fit
[2] = contribution of τdes2, 100 µM ATP 60 s
[3] = decay after removal of 1 or 3 µM ATP, 3 µM IVM
[4] = naïve receptors, 2–5 s application
[5] = 3 µM IVM 4-6 min vs IVM-untreated

| SMILES | τdes1 (rP2X4R N287A mutant; [1]) [s] | τdes2 (rP2X4R N287A mutant; [1]) [s] | Imax (rP2X4R N287A mutant; 100–1000 µM ATP) [nA] | Imax+IVM (rP2X4R N287A mutant; ATP after 3 µM IVM 4-6 min) [nA] | A2 /(A1+A2) (rP2X4R N287A mutant; [2]) [%] | τoff +IVM (rP2X4R N287A mutant; [3]) [s] | EC50 (rP2X4R N287A mutant; [4]) [µM] | τdes (rP2X4R N287A mutant; weighted, 100 µM ATP 60 s) [s] | τdes1 (rP2X4R V288A mutant; [1]) [s] | τdes2 (rP2X4R V288A mutant; [1]) [s] | Imax (rP2X4R V288A mutant; 100–1000 µM ATP) [nA] | Imax+IVM (rP2X4R V288A mutant; ATP after 3 µM IVM 4-6 min) [nA] | A2 /(A1+A2) (rP2X4R V288A mutant; [2]) [%] | τoff +IVM (rP2X4R V288A mutant; [3]) [s] | EC50 (rP2X4R V288A mutant; [4]) [µM] | τdes (rP2X4R V288A mutant; weighted, 100 µM ATP 60 s) [s] | Fold incr. Imax (rP2X4R N287A mutant; [5]) [fold] | Fold incr. Imax (rP2X4R V288A mutant; [5]) [fold] |
| --- | --- | --- | --- | --- | --- | --- | --- | --- | --- | --- | --- | --- | --- | --- | --- | --- | --- | --- |
| Nc1ncnc2c1ncn2[C@@H]1O[C@H](COP(=O)(O)OP(=O)(O)OP(=O)(O)O)[C@@H](O)[C@H]1O [ATP] | 1.6 ± 0.1 | 10.2 ± 3.0 | 1.6 ±0.2 | 4.0 ± 0.6 | 75 ± 16 | 16 ± 2.5 | 3.2 ± 1 | 7.1 ± 0.5 | 1.7 ± 0.3 | 9.3 ± 1.7 | 1.3 ± 0.2 | 3.0 ± 0.7 | 72 ± 8 | 19 ± 2.0 | 5.7 ± 3.1 | 7.5 ± 1.6 | – | – |
| CC[C@H](C)[C@H]1O[C@]2(CC[C@@H]1C)C[C@@H]1C[C@@H](C/C=C(\C)[C@@H](O[C@H]3C[C@H](OC)[C@@H](O[C@H]4C[C@H](OC)[C@@H](O)[C@H](C)O4)[C@H](C)O3)[C@@H](C)/C=C/C=C3\CO[C@@H]4[C@H](O)C(C)=C[C@@H](C(=O)O1)[C@]34O)O2 [IVM, ivermectin] | – | – | – | – | – | – | – | – | – | – | – | – | – | – | – | – | 3.3 ± 0.4 | 2.3 ± 0.3 |

From PMC4232510, “Identification of Functionally Important Residues of the Rat P2X4 Receptor by Alanine Scanning Mutagenesis of the Dorsal Fin and Left Flipper Domains” (PLoS ONE, 2014)
